{"source": "patent US20260055081A1", "about": "“Metal Chelator Compounds, Coordination Complexes, and Methods of Preparation and Use Thereof” (University of Puerto Rico, priority 2022, published 2026)", "key": {"[1]": {"test": "Aqueous solubility (observation)", "type": "physicochemical"}, "red blood cells": {"system": "red blood cells", "test": "CO-ADD hemolysis assay", "type": "cell-based, human", "details": "up to a concentration of 50.3 μM; human red blood cells, 1 h at 37° C.", "procedure": "CO-ADD hemolysis assay. Dry compounds ranging from 1-2 mg were delivered to the CO-ADD. The compounds were solubilized to a stock concentration of 10 mg/mL in DMSO. Samples were serially diluted 1:2 fold in water to final testing concentrations of […] while keeping the final DMSO concentration to a maximum of 0.32% (v/v). Each sample concentration was prepared in polypropylene 384-well plates (Corning 3657) for hemolysis assays, all in two duplicate plates (n=2). All sample preparation was conducted using liquid handling robots. Human whole blood (Australian Red Cross) was washed three times with three volumes of 0.9% NaCl (w/v) and resuspended in a concentration of […], determined by manual cell count in a Neubauer hemocytometer. Washed cells were added to the compound-containing plates for a final volume of 50 μL. After a 10 min shake on a plate shaker the plates were then incubated for 1 h at 37° C. After incubation, the plates were centrifuged at 1000 g for 10 min to pellet cells and debris, 25 μL of the supernatant was then transferred to reading plates (384 well, polystyrene plated (PS), Corning CLS3680), with hemolysis determined by measuring the supernatant absorbance at […] (OD405) using a Tecan M1000 Pro monochromator plate reader. HC10 and HC50 (concentration at 10% and 50% hemolysis, respectively) were calculated by curve fitting the inhibition values vs. log(concentration) using a sigmoidal dose-response function with variable fitting values for the top, bottom, and slope. The maximal percentage of hemolysis is reported as Dmax. Hemolysis samples are classified by HC10≤32 μg/mL. […] Melittin was used in 8 concentrations in 2-fold serial dilutions with 50 µg/mL being the highest concentration."}, "Jurkat cells [2]": {"system": "Jurkat cells", "test": "Fe(III) supplementation cell viability study", "type": "cell-based, human", "details": "Jurkat supplemented with 2 μM and 5 μM Fe(III) as Fe(Citrate)2 two hours before 2 μM DefNEtTrp, 72 h", "procedure": "Fe(III) supplementation cell viability study. Jurkat cells were seeded into 96-well plates, as indicated in the MTT assay described above. One group of cells was supplemented with 2 μM [Fe(citrate)2]^5− (prepared in situ) while another was supplemented with 5 μM [Fe(citrate)2]^5−. Another group of cells were treated with media alone. After 2 h incubation, half of the cells supplemented with [Fe(citrate)2]^5− were treated with 2 μM DefNEtTrp while the other half was treated with media alone. The final percentage of DMF was maintained at 0.5% (v/v). The MTT assay was performed with these samples (n=6). A student t-test was performed to evaluate the difference in the viability of cells treated with DefNEtTrp and supplemented with and without [Fe(citrate)2]^5−."}, "Breast cancer cell lines": {"system": "Breast cancer cell lines", "test": "NCI 60 five-dose screen, breast panel", "type": "cell-based, human", "details": "48 h", "procedure": "(§1) National Cancer Institute Cancer Cell Line (NCI 60) Screen of DefNEtTrp. Details of the methodology for NCI 60 cell line screening are described at http://dtp.nci.nih.gov/branches/btb/ivclsp.html. The cells, grown in supplemented RPMI-1640 medium, are seeded in 96 well plates at an appropriate density and incubated for 24 h. The test compounds are dissolved in DMSO and incubated with cells at a single dose of 10.0 μM for 48 h. The assay is terminated by addition of cold trichloroacetic acid, and the cells are fixed and stained with sulforhodamine B. Bound stain is solubilized, and the absorbance is read on an automated plate reader. […] Using the seven absorbance measurements [time zero, […], control growth, (C), and test growth in the presence of drug at the five concentration levels (Tf)], the percentage growth was calculated at each of the drug concentrations levels as: [(Tf−Ti)/(C−Ti)]×100 for concentrations for which Tf≥Ti and [(Tf−Ti)/Ti]×100 for concentrations for which Tf<Ti. Three-dose response parameters (GI50, TGI, and LC50) were calculated for each of the experimental agents in five dose assay. […] The total growth inhibition (TGI) was calculated from Tf=Ti, which was the drug concentration resulting in total growth inhibition and signified the cytostatic effect. […]"}, "[3]": {"system": "Prostate cancer cell lines", "test": "NCI 60 five-dose screen, prostate panel", "type": "cell-based, human", "details": "48 h", "procedure": "as §1"}, "Jurkat cells [4]": {"system": "Jurkat cells", "test": "Apoptosis mechanistic cell viability study (Q-VD-OPh)", "type": "cell-based, human", "details": "10 μM Q-VD-OPh pretreatment, 2 μM DefNEtTrp, 72 h", "procedure": "Apoptosis mechanistic cell viability study. Jurkat cells were seeded into 96-well plates, as indicated in the MTT assay described above. The cells were treated with 10 μM of the apoptosis inhibitor Q-VD-OPh (Q-V-O). Another group of cells were treated with media alone. After 1 h incubation, half of the cells supplemented with Q-V-O were treated with 2 μM DefNEtTrp or 2 μM cisplatin, as positive control, while the other half was treated with media alone. The final percentage of DMF was maintained at 0.5% (v/v). The MTT assay was performed with these samples (n=6). A student t-test was performed to evaluate the difference in the viability of cells treated with DefNEtTrp or cisplatin and supplemented with and without Q-V-O."}, "[5]": {"details": "cell lines in which TGI was observed"}, "[6]": {"details": "Homo sapiens, read-out: GI50 (calculated average)"}}}
{"smiles": "Nc1cccnc1/C=N/NC(=S)NCCNC(=O)c1ccc(-n2nc(-c3ccccc3O)nc2-c2ccccc2O)cc1", "note": "[DefNEtTrp, deferasirox nitrogen ethyl triapine]", "values": [{"measurement": "water solubility", "setting": "[1]", "result": "limited water solubility"}, {"measurement": "hemolysis", "setting": "red blood cells", "result": "~5", "unit": "%"}, {"measurement": "viability relative to the non-supplemented group", "setting": "Jurkat cells [2]", "result": "significant increase in viability"}, {"measurement": "TGI (calculated average)", "setting": "Breast cancer cell lines; [5]", "result": 4840, "unit": "nM"}, {"measurement": "GI50", "setting": "Breast cancer cell lines; [6]", "result": 450, "unit": "nM"}, {"measurement": "TGI (calculated average)", "setting": "[3]; [5]", "result": 18200, "unit": "nM"}, {"measurement": "GI50", "setting": "[3]; [6]", "result": 1140, "unit": "nM"}, {"measurement": "change in viability of cells pretreated with Q-VD-OPh", "setting": "Jurkat cells [4]", "result": "two-fold increase in viability"}]}
